Values of other authors in patent publication US20190350197A1, “Composition comprising polyurethane microcapsules comprising cinmethylin” (BASF Agro B.V., priority 2016, published 2019).

Details: at 20° C.

Substance: (±)-2-exo-(2-methylbenzyloxy)-1-methyl-4-isopropyl-7-oxabicyclo[2.2.1]heptane [Cinmethylin]
- solubility in water: 0.063 g-L^−1
